This is an account of results in publication PMC9865040, “Design of A3B-Porphyrin Conjugates with Terpyridine as Potential Theranostic Agents: Synthesis, Complexation with Fe(III), Gd(III), and Photodynamic Activity” (Pharmaceutics, 2023).

The conditions of data set [1]: standard; cited from earlier work.
Details of data set [2]: method as in PMID 17020252, PMID 24063545, doi:10.1002/(SICI)1099-1409(199803/04)2:2<145::AID-JPP60>3.0.CO. Conditions: in DMF, standard; cited from earlier work.
The subject of data set [3] is Hep2 cell line (human laryngeal cancer). Description: Cell viability study (MTT-test) with and without irradiation. It counts as cell-based. On the procedure: (§1) Biological activity. Cell viability study (MTT-test) on Hep2 (human laryngeal cancer) and NKE (normal kidney epithelial) cell lines. For this study, cells were plated into 96-well plates (BD Micro-FinePlus, Franklin Lakes, USA) (6 × 10^3 cells in 180 μL of culture medium) and incubated for 24 h at 37 °C in 5% CO2. The medium was standard DMEM (PanEco, Moscow, Russia) with penicillin-streptomycin (50 units/mL) (PanEco, Moscow, Russia) supplemented with 10% fetal bovine serum (PanEco, Russia). After this time, culture medium was replaced with a similar volume of Hanks’ solution (PanEco, Russia) with glucose added at a final concentration of 4.5 mg/mL. On the day of the experiment, serial dilutions of the compound in deionised water were made and 20 μL was added to the cell culture. The cell culture thus obtained was irradiated for 90 min using a Medical Therapy Philips TL 20W/52 lamp (wavelength 400–500 nm), power 2.3 mW. In parallel, the cell culture was incubated with the compound in the dark. After 90 min, in both cases, Hanks’ solution with the compound was replaced with DMEM medium without serum. The cell culture was then left for 24 h at 37 °C in 5% CO2 in the dark, after which 10 μL of MTT reagent solution (5 mg/mL, PanEco, Russia) was added and incubated for another 3.5 h. The formed formazan in cells was dissolved in 100 μL DMSO. The optical density of the solution was measured on a MultiScan MCC 340 spectrophotometer (Labsystems, Kennett Square, PA, USA) at 540 nm. Each series of experiments was repeated 3 times. […] Statistical processing of the obtained data was performed using Excel program package (Microsoft).
(§2) Cell viability study (MTT-test). The cytotoxicity of compounds 12 and 14 was studied on a Hep2 cell line (human laryngeal cancer) and NKE (human normal kidney epithelial), with and without irradiation. Two approaches were used when treating the cells. In the first case, compounds 12 and 14 were introduced into the cell culture only for the irradiation time (90 min). After that, the cell medium containing one of the compounds was removed. The cells were incubated in a fresh DMEM medium without compounds for a further 24 h, after which time the results were evaluated. The IC50 values were close for both cell lines (Table 4, Figure 5 and Figure S58). […] The results for the NKE cell line are presented in Table 4 and Figure S58 (Supporting Information).
(§3) In the second series of experiments, cell viability was evaluated 24 h after irradiation without removing the compound from the culture medium.
Background: Tetrazolium dyes change colour on reduction, which living cells bring about.

Data set [4] concerns NKE (human normal kidney epithelial) cell line. The description is as above. It counts as cell-based. On the procedure:
as §1, §2, §3

The nature of data set [5]: Singlet oxygen quantum yield, DPBF oxidation in DMF, ZnTPP as standard. It counts as physicochemical. Conditions: air-saturated, λ ≥ 500 nm. An excerpt:
Photochemical experiments for singlet oxygen quantum yield determination. Porphyrin-containing samples were irradiated in quartz cells at room temperature in air-saturated DMF solutions. Light source consisted of halogen lamp (150 W), thermal and UV filters, a three-lens spherical condenser with a reflector, and a cut-off filter (λ ≥ 500 nm). The light flux power was 10 mW/cm^2. The efficiency of photosensitised ^1O2 generation in porphyrin solutions was estimated from the dynamics of the absorbance decrease at 415 nm, corresponding to the absorption maximum of the selective ^1O2 acceptor-1,3-diphenylisobenzofuran (DPBF). DPBF was added to the solution of the tested compound in the dark immediately before the start of the photochemical experiment (CDPBF = 0.1 mM). […] The singlet oxygen quantum yield (ΦΔ) were calculated according to the known procedure with ZnTPP being a standard (ΦΔ = 0.74 in DMF).

The nature of data set [6]: Aggregation behaviour, UV-vis absorption and fluorescence spectra in DMF and aqueous solubiliser solutions. In kind it is physicochemical. On the procedure:
Aggregation behavior, photophysical characterization and solubilisation studies. Photophysical properties of zinc complexes of amphiphilic meso-arylporphyrins and their conjugates with terpyridine were studied in DMF and aqueous solutions of different solubilisers. Stock solutions of 1 mM of the studied compounds in DMF were added upon stirring to a micellar aqueous solution of a solubiliser (3 mL). The final concentration of the porphyrins was 3.5 µM. UV-vis absorption spectra were recorded using HACH DR-4000V spectrophotometer (Hach-Lange, Loveland, CO, USA) within the wavelength range of 320–800 nm with a step of 1 nm in quartz cells (10 mm) at room temperature. Steady-state fluorescence spectra were recorded using Perkin Elmer LS-50 (USA) luminescent spectrometer under similar conditions with the Soret band maximum excitation. Fluorescence quantum yields (ΦF) for Zn(II) complexes in DMF were measured according to the procedure using ZnTPP as a standard (ΦF = 0.033).

Test in data set [7]: as above
It counts as physicochemical. Conditions: DMSO.

For data set [8], the system named is NKE cells (human kidney epithelium). Description: Comet assay (DNA damage test). It counts as cell-based. Conditions: 1 μg/mL, 24 h, positive control. On the procedure: Comet assay. NKE cells (human kidney epithelium) were seeded into 24-well plates at 8 × 10^4 per well and incubated in DMEM medium (PanEco, Russia) with penicillin-streptomycin (50 units/mL) (PanEco, Russia) and 10% fetal bovine serum (PanEco, Russia) at 37 °C in 5% CO2. After 24 h, the medium was changed to a similar one but without serum to avoid interaction of the studied substance with it. […] Cells serving as positive controls were treated with ifosfamide (Baxter Oncology, Germany) at a final concentration of 1 μg/mL. Cell culture with the substances was left for 24 h at 37 °C in 5% CO2. Once this time was reached, the cells were removed from the substrate and washed twice with phosphate-salt buffer (PBS). Direct Comet assay was performed using OxiSelect™ Comet Assay Kit (Cell Biolabs, USA) according to the manufacturer’s protocol. Samples were stained with fluorescent dye Sybr Gold, Invitrogene, USA, and examined with a Zeiss microscope using a filter for FITC-fluorescence. All necessary measurements were performed using the computer program CometScore2.0. Statistics were calculated using Student’s t-test using the Microsoft Excel software package.
During the study, the NKE cells were seeded in 24-well plates. […] After this time, the assay itself was performed using OxiSelect™ Comet Assay Kit (Cell Biolabs, San Diego, CA, USA). […]

Take `C1=Cc2nc1c(-c1ccccc1)c1ccc([n-]1)c(-c1ccccc1)c1nc(c(-c3ccccc3)c3ccc([n-]3)c2-c2ccccc2)C=C1.[Zn+2]` [ZnTPP]: in data set [1], the “fluorescence quantum yield ΦF” value is 0.033. Besides, the “singlet oxygen quantum yield ΦΔ” value in data set [2] is 0.74.

In the case of `CCCCCCOc1ccc(-c2c3nc(c(-c4ccc(OCCCCCC)cc4)c4ccc([n-]4)c(-c4ccc(OCc5ccc(-c6cc(-c7ccccn7)nc(-c7ccccn7)c6)cc5)cc4)c4nc(c(-c5ccc(OCCCCCC)cc5)c5ccc2[n-]5)C=C4)C=C3)cc1.[Zn+2]` [compound 12], the IC50 in data set [3] (dark conditions, 24 h) turned out to be 2550 ± 280 nM; in data set [3] (light irradiation 8.073 J/cm^2, 24 h, compound not removed), 2470 ± 233 nM; in data set [3] (light irradiation 90 min, 8.073 J/cm^2, compound present […] then removed, read after 24 h), 1870 ± 333 nM; in data set [4] (dark conditions, 24 h) it was 2440 ± 281 nM; in data set [4] (light irradiation 8.073 J/cm^2, 24 h), 2570 ± 320 nM; in data set [4] (light irradiation 8.073 J/cm^2, […]), 1700 ± 297 nM. Further, the “toxic effect without irradiation” value in data set [3] (dark, […] incubation, studied concentration range) is “no toxic effect”. Moreover, the “singlet oxygen quantum yield” value in data set [5] is on record as “about 65%”. Further, the solubilisation result in data set [6] (0.5 mM Tween-80, 1% Cremophor EL and 1% Pluronic F-127) is on record as “partial solubilisation”. Further, the lgε in data set [6] (Brij-58 (0.5 mM)) came out at 5.15; in data set [6] (Cremophor (1% Cremophor EL)), 5.35; in data set [6] (DMSO), 5.70; in data set [6] (Pluronic (1% Pluronic F-127)), 5.36; in data set [6] (TX-100 (1 mM)), 5.34; in data set [6] (Tween-80 (0.5 mM)), 5.40. In addition, the “ΔλB (half-width of the Soret band)” value is reported as 28 nm in data set [6] (Brij-58 (0.5 mM)); 27 nm in data set [6] (Cremophor (1% Cremophor EL)); 36 nm in data set [6] (H2O); 22 nm in data set [6] (Pluronic (1% Pluronic F-127)); 25 nm in data set [6] (TX-100 (1 mM)); 19 nm in data set [6] (Tween-80 (0.5 mM)). For the same compound, the “ΔλB (half-width of the Soret band)” value in data set [7] was found to be 10 nm. The “λem, second band” value in data set [6] (Brij-58 (0.5 mM)) came to 660 nm; in data set [6] (Cremophor (1% Cremophor EL)), 655 nm; in data set [6] (H2O), 660 nm; in data set [6] (Pluronic (1% Pluronic F-127)) it was 658 nm. In addition, the λmax in data set [6] (Cremophor (1% Cremophor EL)) worked out at 430. Also, the “molar absorption coefficient, times lower than for ZnTPP” value in data set [6] (DMF) is on record as 1.5 times. The “λQ (first Q band)” value in data set [6] (DMF) was 560 nm.

Regarding `O=P1(NCCCl)OCCCN1CCCl` (centres unmarked) [ifosfamide], the “proportion of 'comet' cells” value in data set [8] is given as 36.1 ± 2.14%.

What is called IC50 is the concentration that gives 50% inhibition.
